Assays:
[1] = tested on: cytokine and IFN-inducible gene expression in draining lymph nodes and spleen; assay type: in vivo, mice; conditions: mouse, in vivo, sc
TNF = experiment: Rat pharmacodynamics: serum TNF by ELISA; assay type: in vivo, rats; conditions: rat, in vivo, sc

For `CCOCc1nc2c(N)nc3ccccc3c2n1CC(C)(C)O` [R848, Resiquimod, reference compound], which “time of peak cytokine mRNA expression” value [1] is on record?
The value was 1 to 3 h.

What about the “Blood tumor necrosis factor (TNF) concentrations, peak” value (TNF) of the same compound?
The value was ~1,000 pg/ml.

Reference: US11464854B2, “Methods and compositions relating to adjuvants” (Children's Medical Center Corporation, priority 2017, dated 2022)
